Patent publication US8399515B2, “Five and fifteen carbon fatty acids for treating metabolic disorders and as nutritional supplements” (Baylor Research Institute, priority 2003, dated 2013)
Several values for one entry are separate records, joined by “and”; a condition that tells them apart may be missing. Equal values may be shown once.

Assays:
VLCAD patient = test: Meal test with triheptanoin or tripentanoin in a VLCAD patient; format: in vivo, human; set-up: Myristenoylcarnitine Level: unit not given here; details: for Myristenoylcarnitine Level / Propionylcarnitine Level: blood
Description: (§1) A VLCAD patient and an SCAD patient, both of whom had gastrostomy sites for enteral administration, each were provided with separate meals containing equimolar amounts of triheptanoin (C7) and tripentanoin (C5) at different times on the same day. Each patient was given the amount in 1 of 4 daily meals equivalent to a diet of 3 gms/Kg/day or about 30% of total Kcal as the triglyceride. Serial blood samples were obtained hourly and individual urines were collected at baseline and during the meal.
(§2) The patient with VLCAD (FIG. 3) was monitored over a 3 hour interval and the SCAD patient was monitored for 4 hours after beginning the meal. […] One way the VLCAD patient was monitored was for myristenoylcamitine (cis-5-C14:1), which reflects oxidation of oleate and is therefore an indication of ongoing lipolysis during the meal tests (it is not derived from either C7 or C5). […] These changes are not observed with even-carbon triglycerides.

SCAD patient = test: Meal test with triheptanoin or tripentanoin in a SCAD patient; format: in vivo, human
Description: as §1, §2
The second patient with SCAD deficiency (FIG. 4) had been receiving the triheptanoin diet for more than 2 years. This disorder is due to an inherited deficiency of butyryl-CoA dehydrogenase (SCAD) and is known to oxidize even carbon fatty acids of 4-6 carbon chain length.
In FIG. 4, C7-C3 represents the blood levels of C3 derived from C7; and C5-C3 represents the blood levels of C3 derived from C5, C7-C5 represents blood levels of pentanoylcarnitine (C5) derived from C7 meals and C5-C5 represents blood levels of pentanoylcarnitine (C5) derived from C5 meals. […] C7-C4 and C5-C4 represent the levels of the disease-specific acylcarnitine (butyrylcarnitine [C4]) observed in SCAD deficiency. […] This increased quantity of C3 corresponds to those observed for SCAD deficiency in the fibroblast studies above shown in Table 1.

[1] = test system: fibroblasts from patients with inherited defects of mitochondrial fat oxidation; test: Propionylcarnitine production in all fat-oxidation-defective fibroblast cell lines (comparison in words); format: cell-based, human; details: all VLCAD, MTP, LCHAD, SCAD cell lines; C5 versus C7; C15 versus C5 or C7
Experimental: (§3) Fibroblasts obtained from patients with inherited defects of mitochondrial fat oxidation were cultured in the presence of omega deuterated odd-carbon numbered fatty acids, as described in Roe, C. R., Sweetman, L., Roe, D. S., David, F., Brunengraber, H., “Effective Dietary Treatment of Cardiomyopathy & Rhabdomyolysis in Long-Chain Fat Oxidation Disorders using an Anaplerotic Odd-Chain Triglyceride,” J. Clin. Invest. 110 (2): 259-269 (2002).
(§4) The data in Table 1 represents testing of cultured fibroblasts derived from ten patients afflicted with Very-long-chain acyl-CoA dehydrogenase (VLCAD) deficiency (six patients with the severe cardiac form and four with the non-cardiac milder phenotype), two patients with Mitochondrial Trifunctional Protein (MTP) deficiency, five patients having L-3-hydroxy-acyl-CoA dehydrogenase (LCHAD) deficiency and three patients with Short-chain acyl-CoA dehydrogenase (SCAD) deficiency.

[2] = test system: control / normal fibroblasts; test: Fate of odd-carbon fatty acids in control (normal) fibroblasts; format: cell-based, human; details: NORMAL fibroblasts
Experimental: Fibroblasts obtained from patients with inherited defects of mitochondrial fat oxidation were cultured in the presence of omega deuterated odd-carbon numbered fatty acids, as described in Roe, C. R., Sweetman, L., Roe, D. S., David, F., Brunengraber, H., “Effective Dietary Treatment of Cardiomyopathy & Rhabdomyolysis in Long-Chain Fat Oxidation Disorders using an Anaplerotic Odd-Chain Triglyceride,” J. Clin. Invest. 110 (2): 259-269 (2002). […]

[3] = test system: fibroblasts from patients with L-3-hydroxy-acyl-CoA dehydrogenase (LCHAD) deficiency; test: Propionylcarnitine from oxidation of odd-carbon fatty acids in LCHAD fibroblasts; format: cell-based, human
Experimental: as §3, §4

[4] = test system: fibroblasts from patients with VLCAD deficiency, non-cardiac milder phenotype; test: Propionylcarnitine from oxidation of odd-carbon fatty acids in VLCAD (non-cardiac) fibroblasts; format: cell-based, human
Experimental: as §3, §4

[5] = test system: fibroblasts from patients with Very-long-chain acyl-CoA dehydrogenase (VLCAD) deficiency, severe cardiac form; test: Propionylcarnitine from oxidation of odd-carbon fatty acids in VLCAD (cardiac) fibroblasts; format: cell-based, human
Experimental: as §3, §4

[6] = test system: MCAD-deficient fibroblasts; test: Fate of odd-carbon fatty acids in MCAD-deficient fibroblasts; format: cell-based, human
Experimental: as §3
Fibroblasts from four patients with MCAD deficiency and one heterozygote (carrier) indicate that odd-carbon fatty acids containing more than seven carbons can not be effectively used in that disease. […]

[7] = test system: fibroblasts from patients with Mitochondrial Trifunctional Protein (MTP) deficiency; test: Propionylcarnitine from oxidation of odd-carbon fatty acids in MTP fibroblasts; format: cell-based, human
Experimental: as §3, §4

[8] = test system: fibroblasts from patients with Short-chain acyl-CoA dehydrogenase (SCAD) deficiency; test: Propionylcarnitine from oxidation of odd-carbon fatty acids in SCAD fibroblasts; format: cell-based, human
Experimental: as §3, §4

[9] = LCHAD fibroblasts, one line per patient
[10] = VLCAD non-cardiac fibroblasts, one line per patient
[11] = average over VLCAD non-cardiac cell lines
[12] = VLCAD cardiac fibroblasts, one line per patient
[13] = average over VLCAD cardiac cell lines
[14] = MTP fibroblasts, one line per patient
[15] = SCAD fibroblasts, one line per patient

CCCCC(=O)O [C5, n-pentanoic acid]
Myristenoylcarnitine Level (VLCAD patient; time 0 hours, cis-5-C14:1, marker of lipolysis): 3.07
Propionylcarnitine Level (VLCAD patient; time 0 hours, enteral meal via gastrostomy): 1.38
Myristenoylcarnitine Level (VLCAD patient; time 1 hours): 2.89
Propionylcarnitine Level (VLCAD patient; time 1 hours): 3.15
Myristenoylcarnitine Level (VLCAD patient; time 2 hours): 2.04
Propionylcarnitine Level (VLCAD patient; time 2 hours): 3.51
Myristenoylcarnitine Level (VLCAD patient; time 3 hours): 3.39
Propionylcarnitine Level (VLCAD patient; time 3 hours): 5.63
Clinical or biochemical toxicity (VLCAD patient; meal test, 3 hour interval): no clinical or biochemical toxicity
Amount of C3 produced following the meal, C5 compared with C7 (SCAD patient): significantly greater
Limitation in oxidation of the meal triglyceride (SCAD patient): no limitation in oxidation
Change in C4 (butyrylcarnitine) during the meal (SCAD patient; C4 already at very low levels): no significant decrease in C4
Clinical or biochemical toxicity (SCAD patient; meal test, 4 hours): no clinical or biochemical toxicity
Relative Blood Levels of Fatty Acid Chain Lengths: C3 (SCAD patient; time 0 hours): 2.61
Relative Blood Levels of Fatty Acid Chain Lengths: C4 (butyrylcarnitine) (SCAD patient; time 0 hours): 0.30
Relative Blood Levels of Fatty Acid Chain Lengths: C3 (SCAD patient; time 1 hours): 2.78
Relative Blood Levels of Fatty Acid Chain Lengths: C4 (butyrylcarnitine) (SCAD patient; time 1 hours): 0.26
Relative Blood Levels of Fatty Acid Chain Lengths: C3 (SCAD patient; time 2 hours): 3.19
Relative Blood Levels of Fatty Acid Chain Lengths: C4 (butyrylcarnitine) (SCAD patient; time 2 hours): 0.27
Relative Blood Levels of Fatty Acid Chain Lengths: C3 (SCAD patient; time 3 hours): 3.73
Relative Blood Levels of Fatty Acid Chain Lengths: C4 (butyrylcarnitine) (SCAD patient; time 3 hours): 0.30
Relative Blood Levels of Fatty Acid Chain Lengths: C3 (SCAD patient; time 4 hours): 4.99
Relative Blood Levels of Fatty Acid Chain Lengths: C4 (butyrylcarnitine) (SCAD patient; time 4 hours): 0.27
Quantity of propionylcarnitine produced, compared with the other odd-carbon fatty acids [1]: consistently greater quantities of propionylcarnitine
Propionylcarnitine from odd carbon precursor [2]: 25.8 nmol/mg Protein/72 hours
Ratio: C5/C7 (propionylcarnitine) [3, 9]: 1.2 and 1.5 (2×) and 2.3 and 1.6
Ratio: C5/C15 (propionylcarnitine) [3, 9]: 1.9 and 2.3 and 2.2 and 3.5 and 2.6
Propionylcarnitine from oxidation of fatty acid ([3]; LCHAD fibroblasts, one line per patient, 72 hours incubation): 65.4 nmol/mg Protein/72 hours and 34.5 nmol/mg Protein/72 hours and 35.0 nmol/mg Protein/72 hours and 24.4 nmol/mg Protein/72 hours and 36.8 nmol/mg Protein/72 hours
AVG. Ratio: C5/C7 ([3]; average over LCHAD cell lines): AVG. 1.6
AVG. Ratio: C5/C15 ([3]; average over LCHAD cell lines): AVG. 2.5
Ratio: C5/C7 (propionylcarnitine) [4, 10]: 2.0 and 1.4 (2×) and 2.1
Ratio: C5/C15 (propionylcarnitine) [4, 10]: 2.7 and 1.5 and 1.4 and 1.7
Propionylcarnitine from oxidation of fatty acid ([4]; VLCAD non-cardiac fibroblasts, one line per patient, 72 hours incubation): 44.4 nmol/mg Protein/72 hours and 28.3 nmol/mg Protein/72 hours and 51.8 nmol/mg Protein/72 hours and 19.7 nmol/mg Protein/72 hours
AVG. Ratio: C5/C7 [4, 11]: AVG. 1.7
AVG. Ratio: C5/C15 [4, 11]: AVG. 1.8
Ratio: C5/C7 (propionylcarnitine) [5, 12]: 1.6 (2×) and 2.1 and 1.5 and 1.7 and 2.0
Ratio: C5/C15 (propionylcarnitine) [5, 12]: 4.0 and 5.2 and 3.1 and 3.5 and 5.3 and 5.1
Propionylcarnitine from oxidation of fatty acid ([5]; VLCAD cardiac fibroblasts, one line per patient, 72 hours incubation): 47.0 nmol/mg Protein/72 hours and 27.2 nmol/mg Protein/72 hours and 67.8 nmol/mg Protein/72 hours and 28.2 nmol/mg Protein/72 hours and 34.7 nmol/mg Protein/72 hours and 50.6 nmol/mg Protein/72 hours
AVG. Ratio: C5/C7 [5, 13]: AVG. 1.8
AVG. Ratio: C5/C15 [5, 13]: AVG. 4.4
Propionyl-CoA produced in culture (in words) ([6]; MCAD 1 and MCAD 2 cell lines, compared with normal): normal or greater than normal
Propionylcarnitine from odd carbon precursor ([6]; MCAD-1 fibroblast cell line): 25.8 nmol/mg Protein/72 hours
Propionylcarnitine from odd carbon precursor ([6]; MCAD-2 fibroblast cell line): 58.5 nmol/mg Protein/72 hours
Ratio: C5/C7 (propionylcarnitine) [7, 14]: 1.6 and 1.3
Ratio: C5/C15 (propionylcarnitine) [7, 14]: 1.2 and 1.4
Propionylcarnitine from oxidation of fatty acid ([7]; MTP fibroblasts, one line per patient, 72 hours incubation): 38.3 nmol/mg Protein/72 hours and 63.6 nmol/mg Protein/72 hours
AVG. Ratio: C5/C7 ([7]; average over MTP cell lines): AVG. 1.5
AVG. Ratio: C5/C15 ([7]; average over MTP cell lines): AVG. 1.3
Ratio: C5/C7 (propionylcarnitine) [8, 15]: 1.4 (2×) and 1.2
Ratio: C5/C15 (propionylcarnitine) [8, 15]: 1.4 (2×) and 1.3
Propionylcarnitine from oxidation of fatty acid ([8]; SCAD fibroblasts, one line per patient, 72 hours incubation): 80.2 nmol/mg Protein/72 hours and 43.6 nmol/mg Protein/72 hours and 48.2 nmol/mg Protein/72 hours
AVG. Ratio: C5/C7 ([8]; average over SCAD cell lines): AVG. 1.3
AVG. Ratio: C5/C15 ([8]; average over SCAD cell lines): AVG. 1.4
